Measurements taken from PubChem BioAssay (NCI).
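Protocol summary: plate cells (96-well), add compound at 5 concentrations, incubate 48 h, interpolate endpoints linearly. TGI is the concentration that stops growth completely.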

Experiments:
Assay in all cases: NCI-60 cell line screen, 48 h
UO-31 renal = system: UO-31 renal
NCI-H23 lung = system: NCI-H23 lung
U251 CNS = system: U251 CNS
HCT-116 colon = system: HCT-116 colon
SK-MEL-5 melanoma = system: SK-MEL-5 melanoma
MDA-MB-435 = system: MDA-MB-435
MCF7 breast = system: MCF7 breast
HL-60(TB) leukemia = system: HL-60(TB) leukemia
COLO 205 colon = system: COLO 205 colon
K-562 leukemia = system: K-562 leukemia
HT29 colon = system: HT29 colon
KM12 colon = system: KM12 colon
SNB-19 CNS = system: SNB-19 CNS
M14 melanoma = system: M14 melanoma
RPMI-8226 leukemia = system: RPMI-8226 leukemia
SF-295 CNS = system: SF-295 CNS
SK-MEL-2 melanoma = system: SK-MEL-2 melanoma
ACHN renal = system: ACHN renal
SN12C renal = system: SN12C renal
CCRF-CEM leukemia = system: CCRF-CEM leukemia
OVCAR-3 ovarian = system: OVCAR-3 ovarian
MDA-N = system: MDA-N
DU-145 prostate = system: DU-145 prostate
RXF 393 renal = system: RXF 393 renal
OVCAR-8 ovarian = system: OVCAR-8 ovarian
T-47D breast = system: T-47D breast
LOX IMVI melanoma = system: LOX IMVI melanoma
SW-620 colon = system: SW-620 colon
CAKI-1 renal = system: CAKI-1 renal
NCI-H460 lung = system: NCI-H460 lung
HOP-92 NSCLC = system: HOP-92 NSCLC
TK-10 renal = system: TK-10 renal
IGROV1 ovarian = system: IGROV1 ovarian
SF-268 CNS = system: SF-268 CNS
NCI-H226 lung = system: NCI-H226 lung
BT-549 breast = system: BT-549 breast
HS 578T breast = system: HS 578T breast
HOP-62 NSCLC = system: HOP-62 NSCLC
NCI-H522 lung = system: NCI-H522 lung
UACC-257 melanoma = system: UACC-257 melanoma
SK-OV-3 ovarian = system: SK-OV-3 ovarian
PC-3 prostate = system: PC-3 prostate
NCI/ADR-RES ovarian = system: NCI/ADR-RES ovarian
HCC-2998 colon = system: HCC-2998 colon
MALME-3M melanoma = system: MALME-3M melanoma
OVCAR-5 ovarian = system: OVCAR-5 ovarian
MDA-MB-231 breast = system: MDA-MB-231 breast
MOLT-4 leukemia = system: MOLT-4 leukemia
A549 NSCLC = system: A549 NSCLC
OVCAR-4 ovarian = system: OVCAR-4 ovarian
HCT-15 colon = system: HCT-15 colon
EKVX NSCLC = system: EKVX NSCLC
UACC-62 melanoma = system: UACC-62 melanoma
786-0 renal = system: 786-0 renal
SNB-75 CNS = system: SNB-75 CNS
SF-539 CNS = system: SF-539 CNS
SK-MEL-28 melanoma = system: SK-MEL-28 melanoma
A498 renal = system: A498 renal

COC(=O)[C@H](Cc1c[nH]c2ccccc12)NC(=O)OCC1OC(n2cc(C)c(=O)[nH]c2=O)CC1N=[N+]=[N-] (stereo partly specified)
TGI (UO-31 renal): > 100 µM
TGI (NCI-H23 lung): > 100 µM
TGI (U251 CNS): > 100 µM
TGI (HCT-116 colon): > 100 µM
TGI (SK-MEL-5 melanoma): > 100 µM
TGI (MDA-MB-435): > 100 µM
TGI (MCF7 breast): > 100 µM
TGI (HL-60(TB) leukemia): > 100 µM
TGI (COLO 205 colon): > 100 µM
TGI (K-562 leukemia): > 100 µM
TGI (HT29 colon): > 100 µM
TGI (KM12 colon): > 100 µM
TGI (SNB-19 CNS): > 100 µM
TGI (M14 melanoma): > 100 µM
TGI (RPMI-8226 leukemia): > 100 µM
TGI (SF-295 CNS): > 100 µM
TGI (SK-MEL-2 melanoma): > 100 µM
TGI (ACHN renal): > 100 µM
TGI (SN12C renal): > 100 µM
TGI (CCRF-CEM leukemia): > 100 µM
TGI (OVCAR-3 ovarian): > 100 µM
TGI (MDA-N): > 100 µM
TGI (DU-145 prostate): > 100 µM
TGI (RXF 393 renal): > 100 µM
TGI (OVCAR-8 ovarian): > 100 µM
TGI (T-47D breast): > 100 µM
TGI (LOX IMVI melanoma): > 100 µM
TGI (SW-620 colon): > 100 µM
TGI (CAKI-1 renal): > 100 µM
TGI (NCI-H460 lung): > 100 µM
TGI (HOP-92 NSCLC): > 100 µM
TGI (TK-10 renal): > 100 µM
TGI (IGROV1 ovarian): > 100 µM
TGI (SF-268 CNS): > 100 µM
TGI (NCI-H226 lung): > 100 µM
TGI (BT-549 breast): > 100 µM
TGI (HS 578T breast): > 100 µM
TGI (HOP-62 NSCLC): > 100 µM
TGI (NCI-H522 lung): > 100 µM
TGI (UACC-257 melanoma): > 100 µM
TGI (SK-OV-3 ovarian): > 100 µM
TGI (PC-3 prostate): > 100 µM
TGI (NCI/ADR-RES ovarian): > 100 µM
TGI (HCC-2998 colon): > 100 µM
TGI (MALME-3M melanoma): > 100 µM
TGI (OVCAR-5 ovarian): > 100 µM
TGI (MDA-MB-231 breast): > 100 µM
TGI (MOLT-4 leukemia): > 100 µM
TGI (A549 NSCLC): > 100 µM
TGI (OVCAR-4 ovarian): > 100 µM
TGI (HCT-15 colon): > 100 µM
TGI (EKVX NSCLC): > 100 µM
TGI (UACC-62 melanoma): > 100 µM
TGI (786-0 renal): > 100 µM
TGI (SNB-75 CNS): > 100 µM

C=C1C(=O)C2=C[C@H]1C[C@H](O)C(=O)[C@]1(C)CCCC(C)(C)[C@H]1C[C@H]2O
TGI (UO-31 renal): 5.27 µM
TGI (NCI-H23 lung): 3.15 µM
TGI (U251 CNS): 2.6 µM
TGI (HCT-116 colon): 3 µM
TGI (MDA-MB-435): 10.2 µM
TGI (MCF7 breast): 1.63 µM
TGI (HL-60(TB) leukemia): 1.03 µM
TGI (COLO 205 colon): 1.85 µM
TGI (K-562 leukemia): 0.824 µM
TGI (HT29 colon): 2.85 µM
TGI (KM12 colon): 5.78 µM
TGI (SNB-19 CNS): 29.8 µM
TGI (M14 melanoma): 2.85 µM
TGI (RPMI-8226 leukemia): 1.02 µM
TGI (SF-295 CNS): 20.5 µM
TGI (SK-MEL-2 melanoma): 20.9 µM
TGI (ACHN renal): 1.65 µM
TGI (SF-539 CNS): 2.6 µM
TGI (SN12C renal): 4.07 µM
TGI (CCRF-CEM leukemia): 0.326 µM
TGI (OVCAR-3 ovarian): 4 µM
TGI (MDA-N): 4.06 µM
TGI (DU-145 prostate): 4.04 µM
TGI (RXF 393 renal): 1.3 µM
TGI (OVCAR-8 ovarian): 5.93 µM
TGI (T-47D breast): 2.36 µM
TGI (SK-MEL-28 melanoma): 3.44 µM
TGI (LOX IMVI melanoma): 2.14 µM
TGI (SW-620 colon): 1.95 µM
TGI (CAKI-1 renal): 2.85 µM
TGI (NCI-H460 lung): 8.77 µM
TGI (HOP-92 NSCLC): 3.01 µM
TGI (TK-10 renal): 2.08 µM
TGI (IGROV1 ovarian): 12.8 µM
TGI (SF-268 CNS): 13.9 µM
TGI (NCI-H226 lung): 23 µM
TGI (BT-549 breast): 5.66 µM
TGI (HS 578T breast): 8.61 µM
TGI (HOP-62 NSCLC): 25.5 µM
TGI (NCI-H522 lung): 1.41 µM
TGI (A498 renal): 3.73 µM
TGI (UACC-257 melanoma): 4.27 µM
TGI (SK-OV-3 ovarian): 25.4 µM
TGI (PC-3 prostate): 3.62 µM
TGI (NCI/ADR-RES ovarian): 3.16 µM
TGI (MALME-3M melanoma): 2.05 µM
TGI (OVCAR-5 ovarian): 3.72 µM
TGI (MDA-MB-231 breast): 2.64 µM
TGI (MOLT-4 leukemia): 10.3 µM
TGI (A549 NSCLC): 2.81 µM
TGI (OVCAR-4 ovarian): 19.2 µM
TGI (HCT-15 colon): 1.96 µM
TGI (EKVX NSCLC): 3.31 µM
TGI (UACC-62 melanoma): 3.05 µM
TGI (786-0 renal): 2.14 µM
TGI (SNB-75 CNS): 17.4 µM
